What is called IC50 is the concentration needed to halve the response being measured.

Among the data in US11505575B2, “Cyclic polypeptides for PCSK9 inhibition” (Merck Sharp & Dohme LLC, priority 2018, dated 2022) are IC50 values, retold here.

This experiment concerns the target human PCSK9 / human LDLR EGFa domain interaction (Homo sapiens, UniProt Q8NBP7). In words: TR-FRET assay of inhibition of the PCSK9-LDLR protein-protein interaction. The class given is binding. As to conditions: 20 nM biotinylated human PCSK9 + 20 nM his-tagged human LDLR EGFa domain, 2 hours room temperature. The procedure: A time-resolved fluorescence resonance energy (TR-FRET) assay was used to measure inhibition of the PCSK9-LDLR protein-protein interaction. Briefly, 20 nM avitag-biotinylated human PCSK9 was incubated with 20 nM his-tagged human LDLR EGFa domain in the presence of 5 nM LANCE Ulight Streptavidin (Perkin Elmer) and 5 nM europium-Anti-6×His (Perkin Elmer) for 2 hours covered at room temperature in buffer containing 50 mM HEPES, 150 mM NaCl, 5 mM CaCl2, 0.01% BSA and 0.01% Surfactant P20. Compounds were tested in dose-response and concentrations giving half-maximal inhibition calculated using a 4-parameter fit equation.

*1 amine or outer side, *2 acyl side, *3 side chain or, on linkers, in order; H or OH if unused. Where a SMILES comes first, the peptide text is derived from it. Bridges are numbered along the chain shown (N, C = ends). [ ]: non-standard residue; d: D form. The star is where a group is joined. Pro(3R,4S-CMe2) = CC1(C)[C@@H]2[C@@H](C(=O)O)NC[C@@H]21; Phe(4-guanidino) = N=C(N)Nc1ccc(C[C@H](N)C(=O)O)cc1; Pro(trans-4-Ph) = O=C(O)[C@@H]1C[C@@H](c2ccccc2)CN1; Trp(7-aza) = N[C@@H](Cc1c[nH]c2ncccc12)C(=O)O; Phe(4-CH2NH2) = NCc1ccc(C[C@H](N)C(=O)O)cc1; Pro(4S-NH2) = N[C@@H]1CN[C@H](C(=O)O)C1; Pro(4,4-F2) = O=C(O)[C@@H]1CC(F)(F)CN1; mXylylene = c1cc(C[*:1])cc(C[*:2])c1; Val(3-OH) = CC(C)(O)[C@H](N)C(=O)O; Myristoyl = CCCCCCCCCCCCCC(=O)*; Aad = N[C@@H](CCCC(=O)O)C(=O)O; Chg = N[C@H](C(=O)O)C1CCCCC1; Tle = CC(C)(C)[C@H](N)C(=O)O; NMeA = CN[C@@H](C)C(=O)O; Nva = CCC[C@H](N)C(=O)O; Mpa = O=C(O)CCS; Sar = CNCC(=O)O

human PCSK9 / human LDLR EGFa domain interaction, sequence (Q8NBP7 153-692): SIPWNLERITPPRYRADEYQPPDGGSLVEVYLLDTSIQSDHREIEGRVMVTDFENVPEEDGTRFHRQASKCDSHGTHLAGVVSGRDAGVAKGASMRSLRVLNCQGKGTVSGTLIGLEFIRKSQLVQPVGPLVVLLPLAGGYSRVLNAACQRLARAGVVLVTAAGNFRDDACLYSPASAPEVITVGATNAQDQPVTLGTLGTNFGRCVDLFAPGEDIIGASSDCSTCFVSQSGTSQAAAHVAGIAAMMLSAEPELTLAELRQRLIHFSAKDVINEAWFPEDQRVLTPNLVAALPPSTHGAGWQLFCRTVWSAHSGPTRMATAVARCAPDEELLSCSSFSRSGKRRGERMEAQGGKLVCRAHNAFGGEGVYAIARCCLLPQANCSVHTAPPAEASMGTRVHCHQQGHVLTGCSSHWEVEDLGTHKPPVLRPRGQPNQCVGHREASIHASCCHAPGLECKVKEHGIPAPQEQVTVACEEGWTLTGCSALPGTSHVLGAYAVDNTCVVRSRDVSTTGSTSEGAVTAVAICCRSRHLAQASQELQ
human PCSK9 / human LDLR EGFa domain interaction, sequence (Q8NBP7 31-152 partner limits assumed): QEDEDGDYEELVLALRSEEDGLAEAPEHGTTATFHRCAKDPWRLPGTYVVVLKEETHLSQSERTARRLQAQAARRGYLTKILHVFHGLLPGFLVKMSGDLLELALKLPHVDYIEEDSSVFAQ

As to `CCC[C@H](NC(C)=O)C(=O)N[C@H]1CSCc2cccc(c2)CSC[C@@H](C(N)=O)NC(=O)[C@H]([C@@H](C)O)NC(=O)[C@H](C2CCCCC2)NC(=O)[C@H](Cc2c[nH]c3ncccc23)NC(=O)[C@H](Cc2cnc[nH]2)NC(=O)[C@H](CCC(=O)O)NC(=O)[C@H](Cc2c[nH]c3ncccc23)NC(=O)[C@H]([C@@H](C)O)NC(=O)[C@H]2CCCN2C(=O)[C@H](Cc2ccc(O)cc2)NC(=O)[C@H](C(C)(C)C)NC1=O` [Compound 001] (Ac-[Nva]C[Tle]Y[dP]T[Trp(7-aza)]EH[Trp(7-aza)][Chg]TC-NH2; linker 2-13 via mXylylene), the IC50 lay in the range of 1000 to 12100 nM.

As to `CCCCCCCCCCCCCC(=O)NCCCC[C@H](NC(C)=O)C(=O)N[C@@H](CCC)C(=O)N[C@H]1CSCc2cccc(c2)CSC[C@@H](C(N)=O)NC(=O)[C@H]([C@@H](C)O)NC(=O)[C@H](C2CCCCC2)NC(=O)[C@H](Cc2c[nH]c3ncccc23)NC(=O)[C@H](Cc2c[nH]cn2)NC(=O)[C@H](CCC(=O)O)NC(=O)[C@H](Cc2c[nH]c3ncccc23)NC(=O)[C@H]([C@@H](C)O)NC(=O)[C@@H]2CCCN2C(=O)[C@H](Cc2ccc(O)cc2)NC(=O)[C@H](C(C)(C)C)NC1=O` [Compound 003] (Ac-K(Myristoyl)[Nva]C[Tle]YPT[Trp(7-aza)]EH[Trp(7-aza)][Chg]TC-NH2; linker 3-14 via mXylylene), the IC50 is 1 to 100 nM.

With `CCC[C@@H]1NC(=O)[C@H](Cc2c[nH]c3ncccc23)NC(=O)[C@H]([C@@H](C)O)NC(=O)[C@@H]2CC(F)(F)CN2C(=O)[C@H](Cc2ccc(O)cc2)NC(=O)[C@H](C(C)(C)C)NC(=O)CCSCc2cccc(c2)CSC[C@@H](C(N)=O)NC(=O)[C@H]([C@@H](C)O)NC(=O)[C@H](CCC)NC(=O)[C@H](Cc2ccc(O)cc2)NC(=O)[C@H](CCC(=O)O)NC1=O` [Compound 004] ([Mpa][Tle]Y[Pro(4,4-F2)]T[Trp(7-aza)][Nva]EY[Nva]TC-NH2; linker 1-12 via mXylylene), the IC50 lay within 1000 to 12100 nM.

Consider `CCC[C@@H]1NC(=O)[C@H](Cc2c[nH]c3ncccc23)NC(=O)[C@H]([C@@H](C)O)NC(=O)[C@@H]2C[C@@H](c3ccccc3)CN2C(=O)[C@H](Cc2ccc(O)cc2)NC(=O)[C@H](C(C)(C)C)NC(=O)CCSCc2cccc(c2)CSC[C@@H](C(N)=O)NC(=O)[C@H]([C@@H](C)O)NC(=O)[C@H](CCC)NC(=O)[C@H](Cc2ccc(O)cc2)NC(=O)[C@H](CCC(=O)O)NC1=O` [Compound 005] ([Mpa][Tle]Y[Pro(trans-4-Ph)]T[Trp(7-aza)][Nva]EY[Nva]TC-NH2; linker 1-12 via mXylylene), for which the IC50 lay in the range of 1000 to 12100 nM.

`CCC[C@H](NC(C)=O)C(=O)N[C@H]1CSCc2cccc(c2)CSC[C@@H](C(N)=O)NC(=O)[C@H]([C@@H](C)O)NC(=O)[C@H](C2CCCCC2)NC(=O)[C@H](Cc2c[nH]c3ncccc23)NC(=O)[C@H](Cc2cnc[nH]2)NC(=O)[C@H](CCC(=O)O)NC(=O)[C@H](Cc2c[nH]c3ncccc23)NC(=O)[C@H]([C@@H](C)O)NC(=O)[C@H](C)N(C)C(=O)[C@H](Cc2ccc(O)cc2)NC(=O)[C@H](C(C)(C)C)NC1=O` [Compound 006] (Ac-[Nva]C[Tle]Y[NMeA]T[Trp(7-aza)]EH[Trp(7-aza)][Chg]TC-NH2; linker 2-13 via mXylylene): the IC50 is 1000 to 12100 nM.

For `CCC[C@H](NC(C)=O)C(=O)N[C@H]1CSCc2cccc(c2)CSC[C@@H](C(N)=O)NC(=O)[C@H]([C@@H](C)O)NC(=O)[C@H](C2CCCCC2)NC(=O)[C@H](Cc2c[nH]c3ncccc23)NC(=O)[C@H](Cc2c[nH]cn2)NC(=O)[C@H](CCC(=O)O)NC(=O)[C@H](Cc2c[nH]c3ncccc23)NC(=O)[C@H]([C@@H](C)O)NC(=O)CN(C)C(=O)[C@H](Cc2ccc(O)cc2)NC(=O)[C@H](C(C)(C)C)NC1=O` [Compound 007] (Ac-[Nva]C[Tle]Y[Sar]T[Trp(7-aza)]EH[Trp(7-aza)][Chg]TC-NH2; linker 2-13 via mXylylene), the IC50 was in the range of 1000 to 12100 nM.

On to `CCC[C@@H]1NC(=O)[C@H](Cc2c[nH]c3ncccc23)NC(=O)[C@H]([C@@H](C)O)NC(=O)[C@@H]2[C@@H]3[C@H](CN2C(=O)[C@H](Cc2ccc(O)cc2)NC(=O)[C@H](C(C)(C)C)NC(=O)CCSCc2cccc(c2)CSC[C@@H](C(N)=O)NC(=O)[C@H]([C@@H](C)O)NC(=O)[C@H](CCC)NC(=O)[C@H](Cc2ccc(O)cc2)NC(=O)[C@H](CCC(=O)O)NC1=O)C3(C)C` [Compound 008] ([Mpa][Tle]Y[Pro(3R,4S-CMe2)]T[Trp(7-aza)][Nva]EY[Nva]TC-NH2; linker 1-12 via mXylylene), for which the IC50 lay within 100 to 1000 nM.

As to `CCC[C@@H]1NC(=O)[C@H](Cc2c[nH]c3ncccc23)NC(=O)[C@H]([C@@H](C)O)NC(=O)[C@@H]2C[C@H](N)CN2C(=O)[C@H](Cc2ccc(O)cc2)NC(=O)[C@H](C(C)(C)C)NC(=O)CCSCc2cccc(c2)CSC[C@@H](C(N)=O)NC(=O)[C@H]([C@@H](C)O)NC(=O)[C@H](C2CCCCC2)NC(=O)[C@H](Cc2ccc(O)cc2)NC(=O)[C@H](CCCC(=O)O)NC1=O` [Compound 010] ([Mpa][Tle]Y[Pro(4S-NH2)]T[Trp(7-aza)][Nva][Aad]Y[Chg]TC-NH2; linker 1-12 via mXylylene), the IC50 lay in the range of 100 to 1000 nM.

Regarding `CCC[C@@H]1NC(=O)[C@H](Cc2c[nH]c3ncccc23)NC(=O)[C@H]([C@@H](C)O)NC(=O)[C@H](Cc2cnc[nH]2)NC(=O)[C@H](Cc2ccc(O)cc2)NC(=O)[C@H](C(C)(C)C)NC(=O)[C@@H](NC(C)=O)CCC(=O)NCc2ccc(cc2)C[C@@H](C(N)=O)NC(=O)[C@H]([C@@H](C)O)NC(=O)[C@H](CCC)NC(=O)[C@H](Cc2ccc(O)cc2)NC(=O)[C@H](CCC(=O)O)NC1=O` [Compound 013] (Ac-E[Tle]YHT[Trp(7-aza)][Nva]EY[Nva]T[Phe(4-CH2NH2)]-NH2; lactam 1-12), the IC50 was in the range of 100 to 1000 nM.

In the case of `CCC[C@@H]1NC(=O)[C@H](Cc2c[nH]c3ncccc23)NC(=O)[C@H]([C@@H](C)O)NC(=O)[C@H](Cc2cnc[nH]2)NC(=O)[C@H](Cc2ccc(O)cc2)NC(=O)[C@H](C(C)(C)C)NC(=O)CCSCc2cccc(c2)CSC[C@H](C(N)=O)NC(=O)[C@H]([C@@H](C)O)NC(=O)[C@H](C2CCCCC2)NC(=O)[C@H](Cc2ccc(O)cc2)NC(=O)[C@H](CCC(=O)O)NC1=O` [Compound 043] ([Mpa][Tle]YHT[Trp(7-aza)][Nva]EY[Chg]T[dC]-NH2; linker 1-12 via mXylylene), the IC50 was 100 to 1000 nM.

`CCC[C@@H]1NC(=O)[C@H](Cc2c[nH]c3ncccc23)NC(=O)[C@H]([C@@H](C)O)NC(=O)[C@H](Cc2cnc[nH]2)NC(=O)[C@H](Cc2ccc(O)cc2)NC(=O)[C@H](C(C)(C)C)NC(=O)CCSCc2cccc(c2)CSC[C@H](C(N)=O)NC(=O)[C@H](C(C)(C)O)NC(=O)[C@H](CCC)NC(=O)[C@H](Cc2ccc(O)cc2)NC(=O)[C@H](CCC(=O)O)NC1=O` [Compound 044] ([Mpa][Tle]YHT[Trp(7-aza)][Nva]EY[Nva][Val(3-OH)][dC]-NH2; linker 1-12 via mXylylene): the IC50 lay within 100 to 1000 nM.

In the case of `CCC[C@@H]1NC(=O)[C@H](Cc2c[nH]c3ncccc23)NC(=O)[C@H]([C@@H](C)O)NC(=O)[C@H](CCCCN)NC(=O)[C@H](Cc2ccc(O)cc2)NC(=O)[C@H](C(C)(C)C)NC(=O)CCSCc2cccc(c2)CSC[C@@H](C(N)=O)NC(=O)[C@H]([C@@H](C)O)NC(=O)[C@H](C2CCCCC2)NC(=O)[C@H](Cc2ccc(O)cc2)NC(=O)[C@H](CCC(=O)O)NC1=O` [Compound 046] ([Mpa][Tle]YKT[Trp(7-aza)][Nva]EY[Chg]TC-NH2; linker 1-12 via mXylylene), the half-maximal inhibitory concentration (IC50) was in the range of 100 to 1000 nM.

Consider `CCC[C@@H]1NC(=O)[C@H](Cc2c[nH]c3ncccc23)NC(=O)[C@H]([C@@H](C)O)NC(=O)[C@H](CCC(=O)O)NC(=O)[C@H](Cc2ccc(O)cc2)NC(=O)[C@H](C(C)(C)C)NC(=O)CCSCc2cccc(c2)CSC[C@@H](C(N)=O)NC(=O)[C@H]([C@@H](C)O)NC(=O)[C@H](C2CCCCC2)NC(=O)[C@H](Cc2ccc(O)cc2)NC(=O)[C@H](CCCCN)NC1=O` [Compound 047] ([Mpa][Tle]YET[Trp(7-aza)][Nva]KY[Chg]TC-NH2; linker 1-12 via mXylylene), for which the concentration for half-maximal inhibition (IC50) was in the range of 100 to 1000 nM.

With `CCC[C@H](NC(=O)[C@H](Cc1c[nH]c2ncccc12)NC(=O)[C@H](NC(C)=O)[C@@H](C)O)C(=O)NC1CCC(=O)NCCCCCNC(=O)[C@H](Cc2ccc(O)cc2)NC(=O)[C@H](C(C)(C)C)NC(=O)CCSCc2cccc(c2)CSC[C@H](C(N)=O)NC(=O)[C@H]([C@@H](C)O)NC(=O)[C@H](C2CCCCC2)NC(=O)[C@H](Cc2ccc(O)cc2)NC1=O` (stereo partly shown) [Compound 049], the IC50 lay within 1000 to 12100 nM.

Turning to `CCC[C@@H]1NC(=O)[C@H](Cc2c[nH]c3ncccc23)NC(=O)[C@H]([C@@H](C)O)NC(=O)[C@H](Cc2cnc[nH]2)NC(=O)[C@H](Cc2ccc(O)cc2)NC(=O)[C@H](C(C)(C)C)NC(=O)[C@@H](NC(=O)[C@H](CCCNC(=N)N)NC(C)=O)CSCc2cccc(c2)CSC[C@@H](C(N)=O)NC(=O)[C@H]([C@@H](C)O)NC(=O)[C@H](CCC)NC(=O)[C@H](Cc2ccc(O)cc2)NC(=O)[C@H](CCC(=O)O)NC1=O` [Compound 050] (Ac-RC[Tle]YHT[Trp(7-aza)][Nva]EY[Nva]TC-NH2; linker 2-13 via mXylylene), the IC50 is 100 to 1000 nM.

Take `CCC[C@@H]1NC(=O)[C@H](Cc2ccc(NC(=N)N)cc2)NC(=O)[C@H]([C@@H](C)O)NC(=O)[C@H](Cc2cnc[nH]2)NC(=O)[C@H](Cc2ccc(O)cc2)NC(=O)[C@H](C(C)(C)C)NC(=O)CCSCc2cccc(c2)CSC[C@@H](C(N)=O)NC(=O)[C@H]([C@@H](C)O)NC(=O)[C@H](CCC)NC(=O)[C@H](Cc2ccc(O)cc2)NC(=O)[C@H](CCC(=O)O)NC1=O` [Compound 055] ([Mpa][Tle]YHT[Phe(4-guanidino)][Nva]EY[Nva]TC-NH2; linker 1-12 via mXylylene): the 50% inhibitory concentration (IC50) lay within 1000 to 12100 nM.
